According to patent US20150031702A1, “PI3K INHIBITORS FOR TREATING COUGH” (GlaxoSmithkline Intellectual Property (No.2) Limited, priority 2012, published 2015):

Tested on: dissociated dorsal ganglion sensory neurons
Assay: Sensitization assay: capsaicin-induced Calcium Imaging response after sensitizing cocktail
Format: cell-based, mouse
Details: co-incubation with various doses of compound (0.002-1000 nM); sensitizing cocktail NGF, GDNF, PGE2, 1β; 3rd capsaicin-induced peak, Fura-2 f340/f380; FIG. 1
Source text: Capsaicin, the active ingredient in pepper sprays, is an irritant that causes noxious respiratory sensations and reflexes including sneezing and coughing in humans. Capsaicin binds to Transient Receptor Potential Vanilloid 1 (TRPV1), whose expression is enriched in both somatic and visceral nociceptors. Exaggerated response to inhaled capsaicin can be seen in subjects with IPF or with cough hypersensitivity syndrome and can be used as a test. Increased reactivity to capsaicin is generally considered a marker of sensitization of nociceptors. Capsaicin effects in sensory neurons dissected from mouse peripheral ganglia can be used as a model to identify nociceptors and to study the sensitization mechanisms in vitro. Response to capsaicin can be quantified in a relatively large population of dissociated sensory neurons using the method of Calcium Imaging. […]
Each point represents how well the capsaicin-induced peak is reduced by the drug when compared with negative control (1, no sensitizing solution, no GSK-1) and positive control (0, sensitizing solution, no GSK-1). Calculated, it is:
Where C=the average relative f340/f380 value of peak 3 for the sensitization control (sensitizing solution, no GSK-1). X=the individual relative f340/f380 value to be calculated, and N=the average relative f340/f380 value of peak 3 for the negative control (no sensitization solution, no GSK-1).

COc1ncc(-c2ccc3ncnc(N4CCOCC4)c3c2)cc1NS(=O)(=O)c1ccc(F)cc1F [GSK-1, 2,4-difluoro-N-{2-(methyloxy)-5-[4-(4-morpholinyl)-6-quinazolinyl]-3-pyridinyl}benzenesulfonamide]
Effect on enhancement of the Calcium Imaging response to capsaicin by the sensitizing cocktail: dose-dependently abolished
